Measured values reported in PubChem BioAssay AID248 (DTP/NCI, 2004).
Where “and” joins values, the source holds several entries; their conditions need not be identical. Equal values may be shown once. Toxic doses and inconclusive results are not listed. Cut-off read from the data, not from the text of the source: active = T/C of 150% or more; inactive = T/C below 125%.

Test system: L1210 leukemia ip in BDF1 mice, survival T/C
Test: NCI In Vivo Anticancer Drug Screen. Data for tumor model L1210 Leukemia (intraperitoneal) in B6D2F1 (BDF1) mice
Conditions: endpoint: mean survival time, higher = longer survival
Method in brief: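 Each compound was tested against a transplantable tumor grown in mice. The endpoint was survival, with treated animals benchmarked against vehicle controls as a simple ratio.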

[1] = dose: 100.0 mg/kg/injection, schedule: Q01DX009 (ip), vehicle: saline
[2] = dose: 100.0 mg/kg/injection, schedule: Q04DX003 (ip), vehicle: saline
[3] = dose: 200.0 mg/kg/injection, schedule: Q01DX009 (ip), vehicle: saline
[4] = dose: 200.0 mg/kg/injection, schedule: Q04DX003 (ip), vehicle: saline
[5] = dose: 400.0 mg/kg/injection, schedule: Q01DX009 (ip), vehicle: saline
[6] = dose: 400.0 mg/kg/injection, schedule: Q04DX003 (ip), vehicle: saline
[7] = dose: 100.0 mg/kg/injection, schedule: Q04DX002 (ip), vehicle: saline
[8] = dose: 100.0 mg/kg/injection, schedule: Q01DX009 (ip), vehicle: Klucel (hydroxypropylcellulose) (HPC)
[9] = dose: 100.0 mg/kg/injection, schedule: Q04DX003 (ip), vehicle: Klucel (hydroxypropylcellulose) (HPC)
[10] = dose: 200.0 mg/kg/injection, schedule: Q04DX003 (ip), vehicle: Klucel (hydroxypropylcellulose) (HPC)
[11] = dose: 100.0 mg/kg/injection, schedule: Q01DX009 (ip), vehicle: saline with Tween-80
[12] = dose: 200.0 mg/kg/injection, schedule: Q01DX009 (ip), vehicle: saline with Tween-80
[13] = dose: 200.0 mg/kg/injection, schedule: Q01DX009 (ip), vehicle: Klucel (hydroxypropylcellulose) (HPC)
[14] = dose: 400.0 mg/kg/injection, schedule: Q01DX009 (ip), vehicle: Klucel (hydroxypropylcellulose) (HPC)
[15] = dose: 400.0 mg/kg/injection, schedule: Q04DX003 (ip), vehicle: Klucel (hydroxypropylcellulose) (HPC)

Measured: T/C

C=CC12COC(=O)C(=C)C1C1OC(=O)C(=C)C1C(O)C2 (stereo unspecified)
inactive: dose: 2.5 mg/kg/injection, schedule: Q01DX009 (ip), vehicle: saline + alcohol 102 % of control | dose: 4.0 mg/kg/injection, schedule: Q01DX009 (ip), vehicle: saline 104 % of control | dose: 4.0 mg/kg/injection, schedule: Q01DX009 (ip), vehicle: water 103 % of control | dose: 5.0 mg/kg/injection, schedule: Q01DX009 (ip), vehicle: saline + alcohol 110 % of control | dose: 6.0 mg/kg/injection, schedule: Q01DX009 (ip), vehicle: saline 113 % of control | dose: 8.0 mg/kg/injection, schedule: Q01DX009 (ip), vehicle: saline 124 % of control | dose: 8.0 mg/kg/injection, schedule: Q01DX009 (ip), vehicle: water 118 % of control | dose: 10.0 mg/kg/injection, schedule: Q01DX009 (ip), vehicle: saline 111 % of control

O=S(=O)(O)CCCCO
inactive: [1] 98 % of control | [2] 95 % of control | [3] 95 % of control | [4] 100 % of control | [5] 95 % of control | [6] 97 % of control

C=CCc1ccc(OC(C)OCCOCCOCC)c(OC)c1 (stereo unspecified)
inactive: [7] 92 % of control | dose: 200.0 mg/kg/injection, schedule: Q04DX002 (ip), vehicle: saline 96 % of control | dose: 400.0 mg/kg/injection, schedule: Q04DX002 (ip), vehicle: saline 101 % of control

CSc1nc(N)cc(C(N)=O)n1
inactive: dose: 100.0 mg/kg/injection, schedule: Q01DX Z (ip), vehicle: methylcellulose (MC) 101 % of control

Clc1ncc(Br)c(Cl)n1
inactive: dose: 6.25 mg/kg/injection, schedule: Q01DX009 (ip), vehicle: Klucel (hydroxypropylcellulose) (HPC) 102 % of control | dose: 12.5 mg/kg/injection, schedule: Q01DX009 (ip), vehicle: Klucel (hydroxypropylcellulose) (HPC) 102 % of control | dose: 25.0 mg/kg/injection, schedule: Q01DX009 (ip), vehicle: Klucel (hydroxypropylcellulose) (HPC) 101 % of control | dose: 100.0 mg/kg/injection, schedule: Q04DX003 (ip), vehicle: other 119 % of control | dose: 200.0 mg/kg/injection, schedule: Q04DX003 (ip), vehicle: other 90 % of control

c1ccc(COc2ccccn2)cc1
inactive: dose: 50.0 mg/kg/injection, schedule: Q01DX009 (ip), vehicle: Klucel (hydroxypropylcellulose) (HPC) 95 % of control | [8] 97 % of control | [9] 98 % of control | [10] 98 % of control

NC(CS)=NCCc1nc2ccccc2[nH]1
inactive: [7] 107 % of control

CC(=O)C(C)(C)O
inactive: [11] 90 % of control | [12] 87 % of control | dose: 400.0 mg/kg/injection, schedule: Q01DX009 (ip), vehicle: saline with Tween-80 92 % of control

CNc1ccc(S(=O)(=O)O)cc1
inactive: [8] 98 % of control | [9] 104 % of control | [13] 103 % of control | [10] 102 % of control | [14] 101 % of control | [15] 98 % of control

CC1(C)c2ccccc2C(=O)C1Cc1ccccc1 (stereo unspecified)
inactive: [1] 102 % of control | [2] 107 % of control | [3] 101 % of control | [4] 104 % of control | [5] 98 % of control | [6] 96 % of control

CCOC(=O)CNc1cccc(F)c1C
inactive: dose: 100.0 mg/kg/injection, schedule: Q04DX002 (ip), vehicle: Klucel (hydroxypropylcellulose) (HPC) 104 % of control | dose: 200.0 mg/kg/injection, schedule: Q04DX002 (ip), vehicle: Klucel (hydroxypropylcellulose) (HPC) 104 % of control | dose: 400.0 mg/kg/injection, schedule: Q04DX002 (ip), vehicle: Klucel (hydroxypropylcellulose) (HPC) 115 % of control

C=CSc1ccccc1
inactive: [11] 105 % of control | [12] 93 % of control

CNc1ccc(C(=O)C2CC2)cc1
inactive: [11] 92 % of control | dose: 100.0 mg/kg/injection, schedule: Q04DX003 (ip), vehicle: saline with Tween-80 100 % of control | [12] 98 % of control | dose: 200.0 mg/kg/injection, schedule: Q04DX003 (ip), vehicle: saline with Tween-80 100 % of control | dose: 400.0 mg/kg/injection, schedule: Q04DX003 (ip), vehicle: saline with Tween-80 86 % of control

COc1ccc(OC)c(NC(=O)Nc2ccc(CCO)cc2)c1
inactive: [1] 99 % of control | [3] 102 % of control | [5] 103 % of control

O=C(Nc1ccc(F)cc1)Oc1ccc2ccccc2c1
inactive: dose: 100.0 mg/kg/injection, schedule: Q01DX001 (ip), vehicle: carboxymethylcellulose (CMC) 103 % of control | dose: 100.0 mg/kg/injection, schedule: Q01DX009 (ip), vehicle: carboxymethylcellulose (CMC) 95 % of control and 97 % of control | dose: 100.0 mg/kg/injection, schedule: Q04DX002 (ip), vehicle: carboxymethylcellulose (CMC) 92 % of control and 98 % of control | dose: 200.0 mg/kg/injection, schedule: Q01DX001 (ip), vehicle: carboxymethylcellulose (CMC) 94 % of control | dose: 200.0 mg/kg/injection, schedule: Q01DX009 (ip), vehicle: carboxymethylcellulose (CMC) 102 % of control and 90 % of control | dose: 200.0 mg/kg/injection, schedule: Q04DX002 (ip), vehicle: carboxymethylcellulose (CMC) 92 % of control and 102 % of control | dose: 400.0 mg/kg/injection, schedule: Q01DX001 (ip), vehicle: carboxymethylcellulose (CMC) 97 % of control | dose: 400.0 mg/kg/injection, schedule: Q01DX009 (ip), vehicle: carboxymethylcellulose (CMC) 94 % of control and 90 % of control | dose: 400.0 mg/kg/injection, schedule: Q04DX002 (ip), vehicle: carboxymethylcellulose (CMC) 93 % of control

CN1CCC(OC(=O)N(c2ccccc2)c2ccccc2)CC1
inactive: dose: 100.0 mg/kg/injection, schedule: Q01DX001 (ip), vehicle: saline with Tween-80 99 % of control | dose: 200.0 mg/kg/injection, schedule: Q01DX001 (ip), vehicle: saline with Tween-80 105 % of control

CC(=O)NCCCCC(N)C(=O)O (stereo unspecified)
inactive: dose: 50.0 mg/kg/injection, schedule: Q01DX001 (ip), vehicle: saline 104 % of control | dose: 100.0 mg/kg/injection, schedule: Q01DX001 (ip), vehicle: saline 93 % of control | dose: 200.0 mg/kg/injection, schedule: Q01DX001 (ip), vehicle: saline 93 % of control | dose: 400.0 mg/kg/injection, schedule: Q01DX001 (ip), vehicle: saline 95 % of control

NC1(CSS(=O)(=O)O)CCN1 (stereo unspecified)
inactive: dose: 10.0 mg/kg/injection, schedule: Q04DX002 (ip), vehicle: saline 106 % of control | dose: 20.0 mg/kg/injection, schedule: Q04DX002 (ip), vehicle: saline 98 % of control | dose: 40.0 mg/kg/injection, schedule: Q04DX002 (ip), vehicle: saline 109 % of control

O=C(Nc1ccc(C(=O)Nc2ccc(C3=NCCN3)cc2)cc1)Nc1ccc(C(=O)Nc2ccc(C3=NCCN3)cc2)cc1
inactive: dose: 15.0 mg/kg/injection, schedule: Q01DX Z (ip), vehicle: methylcellulose (MC) 102 % of control | dose: 30.0 mg/kg/injection, schedule: Q01DX Z (ip), vehicle: methylcellulose (MC) 103 % of control | dose: 60.0 mg/kg/injection, schedule: Q01DX Z (ip), vehicle: methylcellulose (MC) 101 % of control | dose: 62.0 mg/kg/injection, schedule: Q01DX Z (ip), vehicle: carboxymethylcellulose (CMC) 91 % of control | dose: 120.0 mg/kg/injection, schedule: Q01DX Z (ip), vehicle: methylcellulose (MC) 103 % of control | dose: 125.0 mg/kg/injection, schedule: Q01DX Z (ip), vehicle: carboxymethylcellulose (CMC) 91 % of control | dose: 250.0 mg/kg/injection, schedule: Q01DX Z (ip), vehicle: carboxymethylcellulose (CMC) 96 % of control

CC(=O)Oc1ccc(C[n+]2ccccc2)cc1
inactive: dose: 12.5 mg/kg/injection, schedule: Q01DX009 (ip), vehicle: saline 94 % of control | dose: 25.0 mg/kg/injection, schedule: Q01DX009 (ip), vehicle: saline 86 % of control | dose: 25.0 mg/kg/injection, schedule: Q04DX003 (ip), vehicle: saline 106 % of control | dose: 50.0 mg/kg/injection, schedule: Q04DX003 (ip), vehicle: saline 100 % of control

Nc1ccccc1Oc1ccccc1
inactive: [8] 94 % of control | [9] 97 % of control | [13] 97 % of control | [10] 98 % of control | [14] 100 % of control | [15] 101 % of control
